# In patent publication US20100298141A1, “SUBSTITUTED PYRIDINE N-OXIDE HERBICIDES” (E. I. DU PONT DE NEMOURS AND COMPANY, priority 2007, published 2010):
# What was measured:
# [1] = tested on: barnyardgrass; experiment: Test A pre-/postemergence greenhouse test; type: in vivo, Echinochloa crus-galli; conditions: for Barnyardgrass plant response rating: 0 to 100 scale
# How it was run: (§1)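 Planting was into mixed loam soil and sand; preemergence treatment followed as a directed soil spray. Concurrently, emerged plants (one- to two-leaf, 2–10 cm) received postemergence applications of identically formulated compound (non-phytotoxic solvent, surfactant). After approximately ten days under greenhouse conditions, injury was judged by eye against untreated plants.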
# [2] = tested on: giant foxtail; experiment: Test A pre-/postemergence greenhouse test; type: in vivo, Setaria faberi; conditions: for Foxtail, Giant plant response rating: 0 to 100 scale
# How it was run: as §1
# [3] = tested on: morningglory; experiment: Test A pre-/postemergence greenhouse test; type: in vivo, Ipomoea spp.; conditions: for Morningglory plant response rating: 0 to 100 scale
# How it was run: as §1
# [4] = tested on: redroot pigweed; experiment: Test A pre-/postemergence greenhouse test; type: in vivo, Amaranthus retroflexus; conditions: for Pigweed plant response rating: 0 to 100 scale
# How it was run: as §1
# [5] = tested on: wheat; experiment: Test A pre-/postemergence greenhouse test; type: in vivo, Triticum aestivum; conditions: for Wheat plant response rating: 0 to 100 scale
# How it was run: as §1
# [6] = tested on: corn; experiment: Test A pre-/postemergence greenhouse test; type: in vivo, Zea mays; conditions: for Corn plant response rating: 0 to 100 scale
# How it was run: as §1
# [7] = tested on: wheat; experiment: Test C pre-/postemergence test; type: in vivo, Triticum aestivum; conditions: for Wheat plant response rating: preemergence, scale 0 (no effect) to 100 (complete control); for Plant response rating, Wheat: scale 0 to 100, 0 no effect, 100 complete control
# How it was run: (§2)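 Test chemicals were formulated with surfactant in a non-phytotoxic solvent and sprayed both on freshly planted seeds (preemergence) and on 1- to 4-leaf plants of 2–18 cm (postemergence). Flooded-paddy pots received compound directly into 3 cm of standing water, maintained for the test.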
# [8] = tested on: bermudagrass; experiment: Test C pre-/postemergence test; type: in vivo, Cynodon dactylon; conditions: for Plant response rating, Bermudagrass: scale 0 to 100, 0 no effect, 100 complete control
# How it was run: as §2
# [9] = tested on: Surinam grass; experiment: Test C pre-/postemergence test; type: in vivo, Brachiaria decumbens; conditions: for Surinam Grass plant response rating: preemergence, scale 0 (no effect) to 100 (complete control); for Plant response rating, Surinam Grass: scale 0 to 100, 0 no effect, 100 complete control
# How it was run: as §2
# [10] = tested on: crabgrass; experiment: Test C pre-/postemergence test; type: in vivo, Digitaria sanguinalis; conditions: for Plant response rating, Crabgrass, Large: scale 0 to 100, 0 no effect, 100 complete control
# How it was run: as §2
# [11] = tested on: Goosegrass; experiment: Test C pre-/postemergence test; type: in vivo, Eleusin indica; conditions: for Plant response rating, Goosegrass: scale 0 to 100, 0 no effect, 100 complete control
# How it was run: as §2
# [12] = tested on: lambsquarters; experiment: Test C pre-/postemergence test; type: in vivo, Chenopodium album; conditions: for Plant response rating, Lambsquarters: scale 0 to 100, 0 no effect, 100 complete control
# How it was run: as §2
# [13] = tested on: eastern black nightshade; experiment: Test C pre-/postemergence test; type: in vivo, Solanum ptycanthum
# Source text: Seeds of plant species selected from blackgrass (Alopecurus myosuroides), downy brome (Bromus tectorum), green foxtail (Setaria viridis), Italian ryegrass (Lolium multiflorum), wheat (Triticum aestivum), wild oat (Avena fatua), catchweed bedstraw (Galium aparine), Russian thistle (Salsola kali), […] (Cynodon dactylon), Surinam grass (Brachiaria decumbens), cocklebur (Xanthium strumarium), corn (Zea mays), crabgrass (Digitaria sanguinalis), woolly cupgrass (Eriochloa villosa), giant foxtail (Setaria faberii), Goosegrass (Eleusin indica), johnsongrass (Sorghum halepense), kochia (Kochia scoparia), lambsquarters (Chenopodium album), morningglory (Ipomoea coccinea), eastern black nightshade (Solanum ptycanthum), yellow nutsedge (Cyperus esculentus), pigweed (Amaranthus retroflexus), common ragweed (Ambrosia elation), soybean (Glycine max), common (oilseed) sunflower (Helianthus annuus), and velvetleaf (Abutilon theophrasti) were planted and treated preemergence with test chemicals formulated in a non-phytotoxic solvent mixture which included a surfactant. At the same time, plants selected from these crop and weed species and also winter barley (Hordeum vulgare), canarygrass (Phalaris minor), and chickweed (Stellaria media) were treated with postemergence applications of some of the test chemicals formulated in the same manner. Plants ranged in height from 2 to 18 cm (1- to 4-leaf stage) for postemergence treatments. […] At time of treatment, test pots were flooded to 3 cm above the soil surface, treated by application of test compounds directly to the paddy water, and then maintained at that water depth for the duration of the test. […] A dash (-) response means no test result.
# [14] = tested on: pigweed; experiment: Test C pre-/postemergence test; type: in vivo, Amaranthus retroflexus; conditions: for Plant response rating, Pigweed: scale 0 to 100, 0 no effect, 100 complete control
# How it was run: as §2
# [15] = tested on: common (oilseed) sunflower; experiment: Test C pre-/postemergence test; type: in vivo, Helianthus annuus; conditions: for Sunflower plant response rating: preemergence, scale 0 (no effect) to 100 (complete control)
# How it was run: as §2
# [16] = tested on: rice; experiment: Test C flooded paddy test; type: in vivo, Oryza sativa; conditions: Flood
# How it was run: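 Compound was added to standing water 3 cm above soil, flood maintained, and plants held in a greenhouse before visual scoring against controls at 13 to 15 days.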
# [17] = Postemergence, 125 g ai/ha, 0 is no effect, 100 is complete control
# [18] = Postemergence, 500 g ai/ha, 0 is no effect, 100 is complete control
# [19] = Preemergence, 125 g ai/ha, 0 no effect, 100 complete control
# [20] = Preemergence, 500 g ai/ha, 0 to 100 scale where 0 is no effect and 100 is complete control
# [21] = 31 g ai/ha, Preemergence, scale 0 to 100
# [22] = 62 g ai/ha, preemergence, scale 0 (no effect) to 100 (complete control)
# [23] = preemergence, 125 g ai/ha, scale 0 (no effect) to 100 (complete control)
compound,measurement,setting,value
Cc1cc[n+]([O-])c(S(=O)(=O)Cc2c(C(F)(F)F)nn(C)c2OC(F)F)c1 [Compound 2],Barnyardgrass plant response rating,[1]; [17],70
same,Barnyardgrass plant response rating,[1]; [18],80
same,Barnyardgrass plant response rating,[1]; [19],90
same,"Plant response rating, Barnyardgrass",[1]; [20],100
same,"Foxtail, Giant plant response rating",[2]; [17],80
same,"Foxtail, Giant plant response rating",[2]; [18],90
same,"Foxtail, Giant plant response rating",[2]; [19],100
same,"Plant response rating, Foxtail, Giant",[2]; [20],100
same,Morningglory plant response rating,[3]; [17],60
same,Morningglory plant response rating,[3]; [18],100
same,Morningglory plant response rating,[3]; [19],80
same,"Plant response rating, Morningglory",[3]; [20],90
same,Pigweed plant response rating,[4]; [17],100
same,Pigweed plant response rating,[4]; [18],100
same,Pigweed plant response rating,[4]; [19],100
same,"Plant response rating, Pigweed",[4]; [20],100
same,Wheat plant response rating,[5]; [17],60
same,Wheat plant response rating,[5]; [18],70
same,Wheat plant response rating,[5]; [19],40
same,"Plant response rating, Wheat",[5]; [20],70
same,Corn plant response rating,[6]; [17],60
same,Corn plant response rating,[6]; [18],60
same,Corn plant response rating,[6]; [19],0
same,"Plant response rating, Corn",[6]; [20],40
same,Wheat plant response rating,[7]; 62 g ai/ha,0
same,"Plant response rating (0 to 100), Wheat","[7]; Postemergence, 31 g ai/ha",0
same,"Plant response rating (0 to 100), Wheat","[7]; Postemergence, 62 g ai/ha",0
same,"Plant response rating, Wheat","[7]; Postemergence, 125 g ai/ha",0
same,"Plant response rating, Wheat","[7]; Postemergence, 250 g ai/ha",0
same,"Plant response rating (0 to 100), Wheat","[7]; Preemergence, 250 g ai/ha",98
same,Wheat plant response rating,[7]; 125 g ai/ha,70
same,Bermudagrass plant response rating,[8]; [21],100
same,Bermudagrass plant response rating,[8]; [22],100
same,"Plant response rating (0 to 100), Bermudagrass","[8]; Postemergence, 31 g ai/ha",0
same,"Plant response rating, Bermudagrass","[8]; Postemergence, 62 g ai/ha",0
same,"Plant response rating, Bermudagrass","[8]; Postemergence, 125 g ai/ha",0
same,"Plant response rating, Bermudagrass","[8]; Postemergence, 250 g ai/ha",40
same,"Plant response rating (0 to 100), Bermudagrass","[8]; Preemergence, 250 g ai/ha",100
same,Bermudagrass plant response rating,[8]; [23],100
same,Surinam Grass plant response rating,[9]; 62 g ai/ha,100
same,"Plant response rating (0 to 100), Surinam Grass","[9]; Postemergence, 31 g ai/ha",0
same,"Plant response rating (0 to 100), Surinam Grass","[9]; Postemergence, 62 g ai/ha",0
same,"Plant response rating, Surinam Grass","[9]; Postemergence, 125 g ai/ha",0
same,"Plant response rating, Surinam Grass","[9]; Postemergence, 250 g ai/ha",0
same,"Plant response rating (0 to 100), Surinam Grass","[9]; Preemergence, 250 g ai/ha",100
same,Surinam Grass plant response rating,[9]; 125 g ai/ha,100
same,"Crabgrass, Large plant response rating",[10]; [21],70
same,"Crabgrass, Large plant response rating",[10]; [22],100
same,"Plant response rating (0 to 100), Crabgrass, Large","[10]; Postemergence, 31 g ai/ha",0
same,"Plant response rating, Crabgrass, Large","[10]; Postemergence, 62 g ai/ha",0
same,"Plant response rating, Crabgrass, Large","[10]; Postemergence, 125 g ai/ha",0
same,"Plant response rating, Crabgrass, Large","[10]; Postemergence, 250 g ai/ha",40
same,"Plant response rating (0 to 100), Crabgrass, Large","[10]; Preemergence, 250 g ai/ha",100
same,"Crabgrass, Large plant response rating",[10]; [23],100
same,Goosegrass plant response rating,[11]; [21],80
same,Goosegrass plant response rating,[11]; [22],100
same,"Plant response rating (0 to 100), Goosegrass","[11]; Postemergence, 31 g ai/ha",0
same,"Plant response rating, Goosegrass","[11]; Postemergence, 62 g ai/ha",0
same,"Plant response rating, Goosegrass","[11]; Postemergence, 125 g ai/ha",0
same,"Plant response rating, Goosegrass","[11]; Postemergence, 250 g ai/ha",0
same,"Plant response rating (0 to 100), Goosegrass","[11]; Preemergence, 250 g ai/ha",100
same,Goosegrass plant response rating,[11]; [23],100
same,Lambsquarters plant response rating,[12]; [21],0
same,Lambsquarters plant response rating,[12]; [22],70
same,"Plant response rating (0 to 100), Lambsquarters","[12]; Postemergence, 31 g ai/ha",0
same,"Plant response rating, Lambsquarters","[12]; Postemergence, 62 g ai/ha",0
same,"Plant response rating, Lambsquarters","[12]; Postemergence, 125 g ai/ha",0
same,"Plant response rating, Lambsquarters","[12]; Postemergence, 250 g ai/ha",0
same,"Plant response rating (0 to 100), Lambsquarters","[12]; Preemergence, 250 g ai/ha",100
same,Lambsquarters plant response rating,[12]; [23],100
same,Nightshade plant response rating,[13]; [21],98
same,Nightshade plant response rating,[13]; [22],100
same,"Plant response rating (0 to 100), Nightshade","[13]; Preemergence, 250 g ai/ha",100
same,Nightshade plant response rating,[13]; [23],100
same,Pigweed plant response rating,[14]; [21],100
same,Pigweed plant response rating,[14]; [22],100
same,"Plant response rating (0 to 100), Pigweed","[14]; Postemergence, 31 g ai/ha",0
same,"Plant response rating (0 to 100), Pigweed","[14]; Postemergence, 62 g ai/ha",0
same,"Plant response rating, Pigweed","[14]; Postemergence, 125 g ai/ha",0
same,"Plant response rating, Pigweed","[14]; Postemergence, 250 g ai/ha",0
same,"Plant response rating (0 to 100), Pigweed","[14]; Preemergence, 250 g ai/ha",100
same,Pigweed plant response rating,[14]; [23],100
same,Sunflower plant response rating,[15]; 62 g ai/ha,5
same,"Plant response rating (0 to 100), Sunflower","[15]; Preemergence, 250 g ai/ha",100
same,Sunflower plant response rating,[15]; 125 g ai/ha,80
same,"Plant response rating, Rice","[16]; 31 g ai/ha, scale 0 to 100 (0 no effect, 100 complete control)",0
same,"Plant response rating, Rice","[16]; 62 g ai/ha, scale 0 to 100, 0 no effect, 100 complete control, 13 to 15 days",10
same,"Plant response rating, Rice","[16]; 125 g ai/ha, scale 0 to 100, 0 no effect, 100 complete control, 13 to 15 days",45
same,"Plant response rating, Rice","[16]; 250 g ai/ha, scale 0 to 100 (0 no effect, 100 complete control)",70
